The values that follow come from US20140249139A1, “Quinazoline Derivatives” (NOVARTIS AG, priority 2011, published 2014).

Experiment [1] concerns murine B cells. The experiment in a line: Murine B cell activation: CD86 expression on CD19 positive B cells after anti-IgM stimulation. Conditions: Balb/c mouse splenocytes, anti-IgM 30 μg/ml, 24 hours, read-out: mCD86/ IC50 CD86. Type of experiment: cell-based. Here is the method:
PI3Kδ has been recognized to modulate B cell function when cells are stimulated through the B cell receptor (BCR) (Okkenhaug et al. Science 297:1031 (2002). For assessing the inhibitory property of compounds on B cell activation, the upregulation of activation markers CD86 and CD69 on murine B cells derived from mouse spleen […] is measured after stimulation with anti-IgM. CD69 is a well known activation marker for B and T cells (Sancho et al. Trends Immunol. 26:136 (2005). CD86 (also known as B7-2) is primarily expressed on antigen-presenting cells, including B cells. Resting B cells express CD86 at low levels, but upregulate it following stimulation of e.g. the BCR or IL-4 receptor. CD86 on a B cell interacts with CD28 on T cells. This interaction is required for optimal T cell activation and for the generation of an optimal IgG1 response (Carreno et al. Annu Rev Immunol. 20:29 (2002)).
Spleens from Balb/c mice were collected, splenocytes were isolated and washed twice with RPMI containing 10% foetal bovine serum (FBS), 10 mM HEPES, 100 Units/ml penicilline/streptomycine. RPMI supplemented in this way is subsequently referred to as medium. The cells were adjusted to 2.5×10^6 cells/ml in medium and 200 μl cell suspension ([…]) were added to the appropriate wells of 96 well plates.
Then the cells were stimulated by adding 50 μl anti-IgM mAb in medium (final concentration: 30 μg/ml). After incubation for 24 hours at 37° C., the cells were stained with the following antibody cocktails: anti-mouse CD86-FITC, anti-mouse CD69-PerCP-Cy5.5, anti-mouse CD19-PerCP for the assessment of B cells, and anti-mouse CD3-FITC, anti-mouse CD69-PE for the assessment of T cells (2 μl of each antibody/well). After one hour at room temperature (RT) in the dark the cells were transferred to 96 Deepwell plates. The cells were washed once with 1 ml PBS containing 2% FBS and after re-suspension in 200 μl the samples were analyzed on a FACS Calibur flow cytometer. Lymphocytes were gated in the FSC/SSC dot plot according to size and granularity and further analyzed for expression of CD19, CD3 and activation markers (CD86, CD69). Data were calculated from dot blots as percentage of cells positively stained for activation markers within the CD19+ or CD3+ population using BD CellQest Software.
For assessing the inhibitory property of compounds, compounds were first dissolved and diluted in DMSO followed by a 1:50 dilution in medium. Splenocytes from Balb/c mice were isolated, re-suspended and transfered to 96 well plates as described above (200 μl/well). The diluted compounds or solvent were added to the plates (25 μl) and incubated at 37° C. for 1 hour. Then the cultures were stimulated with 25 μl anti-IgM mAb/well (final concentration 30 μg/ml) for 24 hours at 37° C. and stained with anti-mouse CD86-FITC and anti-mouse CD19-PerCP (2 μl of each antibody/well). CD86 expression on CD19 positive B cells was quantified by flow cytometry as described above.

Experiment [2] addresses T1, PI3K alpha (Homo sapiens, UniProt P42336).
T1 construct: for the p110-a subunit (with a deletion of the first 20 amino acids) are generated; His tag (C); made in house; host or cells: baculovirus BV1075; Tn5 (Trichoplusia ni) or TiniPro insect cells
The experiment in a line: Enzymatic PI3K alpha isoform inhibition (lipid kinase activity, Kinase-Glo). In kind it is biochemical. Conditions: enzymatic assay. The method in brief:
(§1)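 Reactions were started with ATP (2 μM solution) after the enzyme (10 nM solution) and phosphatidylinositol substrate (5 μg/ml solution) were added to the DMSO-dissolved compounds.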
(In general: Kinase-Glo measures the ATP left after a reaction by luminescence.)

The target in experiment [3] is T2, PI3K delta (Homo sapiens, UniProt O00329).
T2 construct: for the full-length p110-d subunit are generated and fused by overlapping PCR; His tag (C); made in house; host or cells: baculovirus BV1060; Tn5 (Trichoplusia ni) or TiniPro insect cells
T2 sequence (O00329 with tags, fused parts or gaps limits assumed, species assumed): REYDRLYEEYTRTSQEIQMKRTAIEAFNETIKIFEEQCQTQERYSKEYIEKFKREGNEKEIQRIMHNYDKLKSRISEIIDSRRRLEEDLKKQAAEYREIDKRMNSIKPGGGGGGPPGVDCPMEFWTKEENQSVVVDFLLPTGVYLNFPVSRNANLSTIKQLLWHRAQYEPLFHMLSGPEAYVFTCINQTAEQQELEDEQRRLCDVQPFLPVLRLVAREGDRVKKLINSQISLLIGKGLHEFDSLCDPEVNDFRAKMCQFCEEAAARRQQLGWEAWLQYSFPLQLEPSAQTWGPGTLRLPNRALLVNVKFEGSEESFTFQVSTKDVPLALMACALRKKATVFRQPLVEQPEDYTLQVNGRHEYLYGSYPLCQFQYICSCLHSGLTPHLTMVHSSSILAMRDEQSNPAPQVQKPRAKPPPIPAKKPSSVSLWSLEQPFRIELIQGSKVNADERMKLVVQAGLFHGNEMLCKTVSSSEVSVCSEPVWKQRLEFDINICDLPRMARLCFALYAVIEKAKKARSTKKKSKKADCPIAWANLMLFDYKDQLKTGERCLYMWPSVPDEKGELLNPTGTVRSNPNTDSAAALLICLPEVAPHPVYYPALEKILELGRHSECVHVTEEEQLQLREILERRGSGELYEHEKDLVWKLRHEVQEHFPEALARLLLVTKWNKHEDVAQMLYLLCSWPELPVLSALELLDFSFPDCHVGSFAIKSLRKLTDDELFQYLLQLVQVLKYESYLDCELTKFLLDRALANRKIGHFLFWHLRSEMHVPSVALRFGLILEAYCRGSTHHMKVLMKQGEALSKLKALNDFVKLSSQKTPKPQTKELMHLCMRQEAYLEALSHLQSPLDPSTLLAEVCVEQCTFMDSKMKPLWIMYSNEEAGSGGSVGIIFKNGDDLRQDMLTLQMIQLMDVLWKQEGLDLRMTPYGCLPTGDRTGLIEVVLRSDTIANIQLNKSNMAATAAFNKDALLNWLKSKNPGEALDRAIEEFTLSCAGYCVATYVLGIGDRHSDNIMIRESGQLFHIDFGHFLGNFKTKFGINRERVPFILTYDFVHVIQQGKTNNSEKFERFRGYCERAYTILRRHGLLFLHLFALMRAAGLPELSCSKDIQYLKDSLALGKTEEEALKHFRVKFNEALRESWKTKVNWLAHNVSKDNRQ
The experiment in a line: Enzymatic PI3K delta isoform inhibition (lipid kinase activity, Kinase-Glo). In kind it is biochemical. The note with it: enzymatic assay. The method in brief:
as §1

T1 sequence (P42336 with tags, fused parts or gaps limits assumed, species assumed): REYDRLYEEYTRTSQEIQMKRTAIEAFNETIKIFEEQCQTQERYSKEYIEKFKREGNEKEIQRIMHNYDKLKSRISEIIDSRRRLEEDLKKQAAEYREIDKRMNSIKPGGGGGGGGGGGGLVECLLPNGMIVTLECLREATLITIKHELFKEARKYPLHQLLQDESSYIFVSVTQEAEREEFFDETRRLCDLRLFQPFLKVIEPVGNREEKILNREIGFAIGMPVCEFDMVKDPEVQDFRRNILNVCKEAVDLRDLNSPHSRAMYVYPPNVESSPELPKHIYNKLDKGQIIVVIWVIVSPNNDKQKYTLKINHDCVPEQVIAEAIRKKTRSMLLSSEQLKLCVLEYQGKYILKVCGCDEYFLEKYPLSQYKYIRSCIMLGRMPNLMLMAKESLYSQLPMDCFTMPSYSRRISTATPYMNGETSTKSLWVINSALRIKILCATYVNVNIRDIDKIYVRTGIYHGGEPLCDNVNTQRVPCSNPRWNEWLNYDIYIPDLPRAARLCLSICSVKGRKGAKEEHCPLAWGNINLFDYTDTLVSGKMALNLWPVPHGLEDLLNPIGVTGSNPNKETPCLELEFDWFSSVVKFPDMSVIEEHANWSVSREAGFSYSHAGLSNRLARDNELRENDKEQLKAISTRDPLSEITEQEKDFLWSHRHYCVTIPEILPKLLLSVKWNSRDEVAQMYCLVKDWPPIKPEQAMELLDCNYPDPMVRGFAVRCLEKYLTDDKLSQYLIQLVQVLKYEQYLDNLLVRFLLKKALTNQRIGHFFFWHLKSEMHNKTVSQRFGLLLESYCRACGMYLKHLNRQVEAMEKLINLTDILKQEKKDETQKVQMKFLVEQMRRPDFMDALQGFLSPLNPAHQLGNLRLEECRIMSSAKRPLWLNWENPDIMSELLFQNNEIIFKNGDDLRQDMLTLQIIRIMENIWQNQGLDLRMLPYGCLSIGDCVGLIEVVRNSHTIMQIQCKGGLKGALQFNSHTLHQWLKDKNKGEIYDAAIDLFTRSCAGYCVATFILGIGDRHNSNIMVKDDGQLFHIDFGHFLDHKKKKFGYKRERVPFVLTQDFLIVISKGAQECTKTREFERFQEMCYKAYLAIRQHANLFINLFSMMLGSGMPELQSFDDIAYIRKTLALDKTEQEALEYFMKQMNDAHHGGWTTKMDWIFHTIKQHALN

`COc1ccc(-c2ccc3ncnc(-c4cccc(C(=O)N5CCN(C(C)=O)CC5)c4)c3c2)cn1` [Example 12]: in experiment [1], the IC50 was determined as 107 nM.

As for `COc1ncc(-c2ccc3ncnc(-c4cc(C)cc(C(=O)N5CCN(C(C)=O)CC5)c4)c3c2)cc1C#N` [Example 109, 5-{4-[3-(4-Acetyl-piperazine-1-carbonyl)-5-methyl-phenyl]-quinazolin-6-yl}-2-methoxy-nicotinonitrile], the IC50 in experiment [2] is 435 nM; in experiment [3] it was 14 nM.

As for `COc1ncc(-c2ccc3ncnc(-c4cc(F)cc(C(=O)N5CCN(C(C)=O)CC5)c4)c3c2)cn1` [Example 111, 1-(4-{3-Fluoro-5-[6-(2-methoxy-pyrimidin-5-yl)-quinazolin-4-yl]-benzoyl}-piperazin-1-yl)-ethanone], the results for the IC50 in experiment [2] and in experiment [3] were 1360 nM and 10 nM, respectively.

Regarding `COc1ncc(-c2ccc3ncnc(-c4ccnc(C(=O)N5CCN(C(C)=O)CC5)c4)c3c2)cn1` [Example 112, 1-(4-{4-[6-(2-Methoxy-pyrimidin-5-yl)-quinazolin-4-yl]-pyridine-2-carbonyl}-piperazin-1-yl)-ethanone], the IC50 is 2320 nM in experiment [2] and 49 nM in experiment [3].

On to `COc1ncc(-c2ccc3ncnc(-c4ccnc(C(=O)N5CCN(C(C)=O)CC5)c4)c3c2)cc1C#N` [Example 113, 5-{4-[2-(4-Acetyl-piperazine-1-carbonyl)-pyridin-4-yl]-quinazolin-6-yl}-2-methoxy-nicotinonitrile], for which the IC50 in experiment [2] stood at 979 nM; in experiment [3] it was 18 nM.

As to `COc1ncc(-c2ccc3ncnc(-c4ccnc(C(=O)N5CCN(C(C)=O)CC5)c4)c3c2)cc1C(F)(F)F` [Example 114, 1-(4-{4-[6-(6-Methoxy-5-trifluoromethyl-pyridin-3-yl)-quinazolin-4-yl]-pyridine-2-carbonyl}-piperazin-1-yl)-ethanone], the IC50 in experiment [2] was 71 nM; in experiment [3], 3 nM.

As to `COc1ccc(-c2ccc3ncnc(-c4ccc(C)c(C(=O)N5CCN(C)CC5)c4)c3c2)cn1` [Example 115, {5-[6-(6-Methoxy-pyridin-3-yl)-quinazolin-4-yl]-2-methyl-phenyl}-(4-methyl-piperazin-1-yl)-methanone], the IC50 was 888 nM in experiment [2] and 42.5 nM in experiment [3].

On to `COc1ccc(-c2ccc3ncnc(-c4ccc(C)c(C(=O)N5CCN(C(C)C)CC5)c4)c3c2)cn1` [Example 116, (4-Isopropyl-piperazin-1-yl)-{5-[6-(6-methoxy-pyridin-3-yl)-quinazolin-4-yl]-2-methyl-phenyl}-methanone], for which the IC50 in experiment [2] worked out at 306 nM; in experiment [3], 14 nM.
